Results on five compounds are retold here after BindingDB's records for doi:10.1021/jm021114j (Cardiff University, 2003).

For this assay, the target named is Sterol 24-C-methyltransferase (Leishmania major). As to the kind of experiment: In vitro inhibitory concentration against Leishmania major Sterol 24-C-methyltransferase (24-SMT).

For the compound `CC(O)(c1cccnc1)[C@H]1CCC2C3CCC4C[C@@H](O)CC[C@]4(C)C3CC[C@@]21C` (stereo partly drawn) [(3S,10S,13S,17S)-17-(1-Hydroxy-1-pyridin-3-yl-ethyl)-10,13-dimethyl-hexadecahydro-cyclopenta[a]phenanthren-3-ol], the IC50 was 38.5 µM.

`CCC(=O)N1CCCCC1C(C)(O)[C@H]1CCC2C3CCC4C[C@@H](O)CC[C@]4(C)C3CC[C@@]21C` (stereo partly drawn) [1-{2-[1-Hydroxy-1-((3S,10S,13S,17S)-3-hydroxy-10,13-dimethyl-hexadecahydro-cyclopenta[a]phenanthren-17-yl)-ethyl]-piperidin-1-yl}-propan-1-one] displayed an IC50 of 12.9 µM.

`CC(O)(C1CCCNC1)[C@H]1CCC2C3CCC4C[C@@H](O)CC[C@]4(C)C3CC[C@@]21C` (stereo partly drawn) [(3S,10S,13S,17S)-17-(1-Hydroxy-1-piperidin-3-yl-ethyl)-10,13-dimethyl-hexadecahydro-cyclopenta[a]phenanthren-3-ol]: the IC50 was determined as 0.1 µM.

The compound `CC(O)(C1CCCNC1)[C@H]1CCC2C3CCC4C[C@@H](O[Si](C)(C)C(C)(C)C)CC[C@]4(C)C3CC[C@@]21C` (stereo partly drawn) [1-[(3S,10S,13S,17S)-3-(tert-Butyl-dimethyl-silanyloxy)-10,13-dimethyl-hexadecahydro-cyclopenta[a]phenanthren-17-yl]-1-piperidin-3-yl-ethanol] showed an IC50 of 8 µM.

In turn, `CC(O)(C1CCCCN1)[C@H]1CC[C@H]2[C@@H]3CCC4C[C@@H](O[Si](C)(C)C(C)(C)C)CC[C@]4(C)[C@H]3CC[C@]12C` (stereo not given in full) returned an IC50 of 12.2 µM.

The term IC50 denotes the concentration that gives 50% inhibition. A lower IC50 goes with inhibition by little substance.
